The record followed here is PubChem BioAssay (NCI).

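These data come from cells grown in 96-well plates and exposed to compound for 48 hours at five concentrations. At the GI50, growth is halved. TGI is the concentration that stops growth completely.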

Some test systems named below: HL-60(TB) leukemia; HCT-15 colon; HOP-92 NSCLC; A498 renal; SF-268 CNS; MOLT-4 leukemia; SK-MEL-28 melanoma; SR leukemia; MDA-MB-435; BT-549 breast.
What all share (assay): NCI tumour cell line growth inhibition, 48 h

For `NC(=O)c1cccc(Nc2nccc(Nc3cccc4[nH]ncc34)n2)c1`, the GI50 is 10.5 µM in the assay with HL-60(TB) leukemia; more than 25 µM with HCT-15 colon; 3 µM in the assay on HOP-92 NSCLC; 5 µM in the assay with A498 renal; 8.45 µM with SF-268 CNS; 12.8 µM in the assay on MOLT-4 leukemia. Besides, the GI50 is 10.1 µM in the assay with SK-MEL-28 melanoma, 8.72 µM with SR leukemia, 8.58 µM with MDA-MB-435 and 9.4 µM with BT-549 breast. Moreover, the TGI is more than 25 µM in the assay with HL-60(TB) leukemia; more than 25 µM in the assay on HCT-15 colon; 12.2 µM in the assay with HOP-92 NSCLC; 22.7 µM in the assay on A498 renal; more than 25 µM in the assay with SF-268 CNS; more than 25 µM in the assay on MOLT-4 leukemia. Further, the TGI with SK-MEL-28 melanoma, in the assay on SR leukemia, with MDA-MB-435 and in the assay with BT-549 breast was more than 25 µM each time.
As to `COc1ccccc1CNCCCN1C(=O)c2ccc3c4c(ccc(c24)C1=O)C(=O)N(CCCCNCCCN)C3=O`, the GI50 in the assay with HL-60(TB) leukemia is 0.867 µM; in the assay with HCT-15 colon, 4.43 µM; in the assay on HOP-92 NSCLC, 2.01 µM; in the assay with A498 renal, 3.12 µM; in the assay with SF-268 CNS, 1.57 µM; with MOLT-4 leukemia, 0.389 µM. The GI50 in the assay with SK-MEL-28 melanoma was 1.59 µM; with SR leukemia, 0.362 µM; in the assay with MDA-MB-435, 0.574 µM; in the assay with BT-549 breast, 2.23 µM. Further, the TGI with HL-60(TB) leukemia amounted to 2.7 µM; in the assay with HCT-15 colon it was 18.6 µM; in the assay on HOP-92 NSCLC it was 7.04 µM; in the assay with A498 renal, 12.8 µM; in the assay with SF-268 CNS, 7.27 µM; in the assay with MOLT-4 leukemia it was 1.7 µM. Besides, the TGI in the assay with SK-MEL-28 melanoma is 3.55 µM; in the assay on SR leukemia, more than 23.6 µM; with MDA-MB-435 it was 1.16 µM; in the assay with BT-549 breast, 4.51 µM.
In the case of `O=Cc1cccc2c1Oc1c(cccc1C(=O)O)S2`, the TGI was more than 100 µM in the assay with HCT-15 colon; more than 100 µM in the assay with HOP-92 NSCLC; more than 100 µM in the assay on A498 renal; more than 100 µM in the assay on SF-268 CNS; 68.1 µM in the assay on MOLT-4 leukemia; more than 100 µM in the assay on SK-MEL-28 melanoma. In addition, the TGI with SR leukemia, in the assay with MDA-MB-435 and in the assay on BT-549 breast was more than 100 µM throughout.
In the case of `Cc1cc(C)c(NC(=S)NC(=O)c2ccccc2)cc1C`, the TGI in the assay with HL-60(TB) leukemia, with HCT-15 colon, with HOP-92 NSCLC, in the assay on A498 renal, with SF-268 CNS and in the assay on MOLT-4 leukemia was more than 100 µM each time. Besides, the TGI in the assay on SK-MEL-28 melanoma, with SR leukemia, in the assay on MDA-MB-435 and with BT-549 breast was more than 100 µM throughout.
In the case of `COc1cc(-c2nc(-c3nc4ccccc4[nH]3)cc3c2[nH]c2ccccc23)cc(OC)c1OC`, the GI50 in the assay on HL-60(TB) leukemia is 4.37 µM; with HCT-15 colon, 4.14 µM; with HOP-92 NSCLC, 0.526 µM; in the assay on A498 renal it was 2.43 µM; with SF-268 CNS it was 4.81 µM; in the assay on MOLT-4 leukemia, 3.93 µM. For the same compound, the GI50 in the assay on SK-MEL-28 melanoma was 6.89 µM; with SR leukemia, 9.5 µM; in the assay with MDA-MB-435, 3.65 µM; in the assay on BT-549 breast it was 5.48 µM. Also, the TGI is more than 100 µM in the assay with HL-60(TB) leukemia; more than 100 µM in the assay with HCT-15 colon; 5.38 µM in the assay on HOP-92 NSCLC; more than 100 µM with A498 renal; more than 100 µM with SF-268 CNS; more than 100 µM in the assay on MOLT-4 leukemia. Also, the TGI with SK-MEL-28 melanoma, in the assay on SR leukemia, with MDA-MB-435 and in the assay on BT-549 breast was more than 100 µM each time.
For the compound `COc1ccc2nc3cc([N+](=O)[O-])ccc3c(NCCCN(C)C)c2c1`, the GI50 was 0.0953 µM in the assay with HL-60(TB) leukemia; 3.46 µM with HCT-15 colon; 0.149 µM in the assay with HOP-92 NSCLC; 1.87 µM in the assay on A498 renal; 0.295 µM in the assay with SF-268 CNS; 0.0432 µM with MOLT-4 leukemia. Also, the GI50 in the assay on SK-MEL-28 melanoma was 0.504 µM; with SR leukemia, 0.0794 µM; with MDA-MB-435, 0.247 µM; in the assay with BT-549 breast it was 2.65 µM. The TGI came out at 0.651 µM in the assay with HOP-92 NSCLC; 5.72 µM in the assay on A498 renal; 1.74 µM in the assay on SF-268 CNS; 0.68 µM with MOLT-4 leukemia; 2.87 µM with SK-MEL-28 melanoma; 1 µM in the assay on MDA-MB-435. In the assay with BT-549 breast, this compound returned a TGI of 5.26 µM.
Consider `Cc1ccc(S(=O)(=O)NNC(=O)c2cc(C)c(C)cc2N)cc1`, for which the TGI in the assay on HL-60(TB) leukemia, in the assay with HCT-15 colon, in the assay on HOP-92 NSCLC, with A498 renal, in the assay on MOLT-4 leukemia and with SK-MEL-28 melanoma was more than 100 µM each time. Moreover, the TGI with SR leukemia, with MDA-MB-435 and in the assay with BT-549 breast was more than 100 µM in each case.
For the compound `CN(Cc1cc(Cl)cc(Cl)c1)CC(C(=O)c1ccccc1)c1ccccc1` (stereo unspecified), the TGI with HL-60(TB) leukemia is 47.4 µM; with HCT-15 colon, 1.84 µM; in the assay on HOP-92 NSCLC, more than 91.3 µM; with A498 renal, 64.8 µM; in the assay on SF-268 CNS it was 68.6 µM; in the assay with SK-MEL-28 melanoma, 9.8 µM. The values for the TGI in the assay with SR leukemia, with MDA-MB-435 and with BT-549 breast were more than 100 µM, 16 µM and 17.6 µM, respectively.
On to `COc1ccc(OC)c2c1[nH]c(=O)c1c3ncccc3cn21`, for which the GI50 in the assay with HL-60(TB) leukemia is 3.13 µM; in the assay on HCT-15 colon, 3.27 µM; with HOP-92 NSCLC it was 0.854 µM; in the assay with A498 renal it was 3.95 µM; with SF-268 CNS it was 4.21 µM; with MOLT-4 leukemia, 3.59 µM. The GI50 with SR leukemia was 3.43 µM; with MDA-MB-435, 3.85 µM; in the assay on BT-549 breast it was more than 100 µM. Besides, the TGI is more than 100 µM with HL-60(TB) leukemia; more than 100 µM in the assay on HCT-15 colon; 6.26 µM in the assay on HOP-92 NSCLC; more than 100 µM in the assay with A498 renal; more than 100 µM with SF-268 CNS; more than 100 µM in the assay on MOLT-4 leukemia. Further, the TGI in the assay on SR leukemia, with MDA-MB-435 and in the assay on BT-549 breast was more than 100 µM throughout.
For `Cn1c2ccc(Br)cc2c2c3c(c4c5ccccc5[nH]c4c21)C(=O)N(O)C3=O`, the GI50 in the assay on HL-60(TB) leukemia is 0.301 µM; in the assay with HOP-92 NSCLC it was 0.0893 µM; with SF-268 CNS, 0.0763 µM; with MOLT-4 leukemia, 0.046 µM; with SK-MEL-28 melanoma, 0.212 µM; in the assay on SR leukemia it was 0.0228 µM. For the same compound, the GI50 with MDA-MB-435 is 0.18 µM; in the assay with BT-549 breast, 0.149 µM. Besides, the TGI amounted to 1.85 µM with HL-60(TB) leukemia; 0.451 µM with HOP-92 NSCLC; 0.72 µM in the assay on SF-268 CNS; 0.312 µM with MOLT-4 leukemia; 0.498 µM in the assay on SK-MEL-28 melanoma; 2.64 µM with SR leukemia. Further, the figures for the TGI with MDA-MB-435 and in the assay with BT-549 breast were 0.498 µM and 0.45 µM, respectively.
`C=C(Nc1ccc([N+](=O)[O-])cc1[N+](=O)[O-])c1c/c(=N\NC(N)=S)c2ccccc2o1`: the TGI in the assay on HL-60(TB) leukemia, in the assay on HCT-15 colon, in the assay with HOP-92 NSCLC, in the assay with SF-268 CNS, in the assay with MOLT-4 leukemia and in the assay on SK-MEL-28 melanoma was more than 100 µM in each case. Besides, the TGI with SR leukemia was 68.7 µM; with MDA-MB-435 it was more than 100 µM; in the assay with BT-549 breast it was more than 100 µM.
Take `CCN(CC)CCCC(C)N=C(C1=C(C(=NC(C)CCCN(CC)CC)c2cccc(OC)c2)C(=O)NC1=O)c1cccc(OC)c1` (stereo unspecified): the GI50 was 3.66 µM with HL-60(TB) leukemia; 1.47 µM in the assay on HCT-15 colon; 0.993 µM in the assay on HOP-92 NSCLC; 1.85 µM in the assay with A498 renal; 1.97 µM in the assay on SF-268 CNS; 1.33 µM with MOLT-4 leukemia. The GI50 was 1.36 µM in the assay on SR leukemia, 0.871 µM in the assay on MDA-MB-435 and 2.24 µM in the assay with BT-549 breast. Besides, the TGI in the assay on HL-60(TB) leukemia was 11.7 µM; with HCT-15 colon, 5.53 µM; in the assay with HOP-92 NSCLC, 3.63 µM; with A498 renal it was 8.38 µM; with SF-268 CNS, 8.29 µM; with MOLT-4 leukemia, 4.24 µM. In addition, the TGI in the assay on SR leukemia was 4.31 µM; in the assay on MDA-MB-435 it was 1.68 µM; in the assay with BT-549 breast, 8.44 µM.
In the case of `OCC(O)c1nc2ccc3[nH]ncc3c2c2c1CCCC2` (stereo unspecified), the GI50 in the assay with HL-60(TB) leukemia is 1.24 µM; in the assay on HCT-15 colon, 1.5 µM; with A498 renal, 0.876 µM; with SF-268 CNS, 1.22 µM; in the assay on MOLT-4 leukemia it was 1.56 µM; with SK-MEL-28 melanoma it was 1.22 µM. Moreover, the GI50 in the assay with SR leukemia is 0.658 µM; with MDA-MB-435, 1.42 µM; in the assay with BT-549 breast it was 0.934 µM. Further, the TGI in the assay with HL-60(TB) leukemia was 3.14 µM; in the assay on HCT-15 colon it was more than 50 µM; in the assay on A498 renal, 1.75 µM; with SF-268 CNS, 4.64 µM; with MOLT-4 leukemia, more than 50 µM; in the assay on SK-MEL-28 melanoma, 3.76 µM. The results for the TGI with SR leukemia, in the assay with MDA-MB-435 and with BT-549 breast were 4.52 µM, 4.31 µM and 2.2 µM, respectively.
Turning to `N#CC1=C(N)NC(N2CCOCC2)=NC12Nc1ccccc1N2`, the GI50 in the assay with HL-60(TB) leukemia is 44.2 µM; in the assay on HCT-15 colon it was 35.2 µM; in the assay with HOP-92 NSCLC, more than 100 µM; in the assay with SF-268 CNS it was 21.6 µM; in the assay with MOLT-4 leukemia, 62.5 µM; in the assay on SK-MEL-28 melanoma, 55.8 µM. For the same compound, the GI50 in the assay with SR leukemia was 28.8 µM; in the assay on MDA-MB-435, 31 µM; in the assay on BT-549 breast it was 32.6 µM. The TGI is more than 100 µM in the assay on HL-60(TB) leukemia; more than 100 µM in the assay with HCT-15 colon; more than 100 µM in the assay with HOP-92 NSCLC; 51.1 µM with SF-268 CNS; more than 100 µM in the assay on MOLT-4 leukemia; more than 100 µM with SK-MEL-28 melanoma. The TGI in the assay on SR leukemia, in the assay with MDA-MB-435 and in the assay with BT-549 breast was more than 100 µM each time.
